Measurements taken from US12264134B2 (Merck Sharp & Dohme LLC, priority 2018, dated 2025).

Legend:
[1] = target: T1, IDO1 (Homo sapiens, UniProt P14902); assay: IDO1 Cellular Assay in HeLa Cells Stimulated with IFNγ; format: cell-based; conditions: read-out: HeLa Cell Potency, IC50
[2] = target: T1, IDO1; assay: IDO1 Human Whole blood Assay; format: cell-based; set-up: Human whole blood was drawn in sodium heparin coated tubes from healthy internal donors; from tissue; host or cells: human whole blood from healthy donors, stimulated with LPS and IFNγ; conditions: LPS and IFNγ stimulated, 18 h, read-out: Human Whole Blood Potency, IC50
How it was run: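 Heparinized healthy-donor human whole blood was preincubated 15 min with compound, then stimulated with LPS and IFNγ (100 ng/mL final) for 18 h at 37 °C. Plasma kynurenine was quantified by LC/MS/MS against a D6-kynurenine internal standard, and IC50s came from 4-parameter sigmoidal fits.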

T1 sequence (P14902 whole entry): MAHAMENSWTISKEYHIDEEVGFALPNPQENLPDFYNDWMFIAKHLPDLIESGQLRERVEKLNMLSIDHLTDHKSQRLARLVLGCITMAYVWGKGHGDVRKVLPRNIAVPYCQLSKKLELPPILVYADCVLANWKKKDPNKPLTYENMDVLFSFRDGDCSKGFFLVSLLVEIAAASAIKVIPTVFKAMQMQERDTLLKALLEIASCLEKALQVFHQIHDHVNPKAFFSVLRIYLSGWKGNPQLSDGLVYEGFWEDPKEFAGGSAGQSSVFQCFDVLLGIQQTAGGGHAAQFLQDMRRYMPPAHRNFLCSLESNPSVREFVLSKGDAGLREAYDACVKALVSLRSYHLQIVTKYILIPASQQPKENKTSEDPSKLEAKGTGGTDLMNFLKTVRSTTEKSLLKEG

IC50 [1]	IC50 [2]	Structure (SMILES)
11.3 nM	360 nM	Cc1cccc(N2CCN(C(=O)Cn3nc(C(=O)N4CCC(O)(CO)CC4)c4c3CCC4)CC2)c1C [Example 141, 1-[4-(2,3-dimethylphenyl)piperazin-1-yl]-2-{3-[4-hydroxy-4-(hydroxymethyl)piperidine-1-carbonyl]-5,6-dihydrocyclopenta[c]pyrazol-1(4H)-yl}ethan-1-one]
2.36 nM	126 nM	Cc1cccc(N2CCN(C(=O)Cn3nc(C(=O)N4CCN(S(C)(=O)=O)CC4)c4c3CCC4)CC2)c1C [Example 127, 1-[4-(2,3-dimethylphenyl)piperazin-1-yl]-2-{3-[4-(methylsulfonyl)piperazine-1-carbonyl]-5,6-dihydrocyclopenta[c]pyrazol-1(4H)-yl}ethan-1-one]
0.79 nM	127 nM	Cc1cccc(N2CCN(C(=O)Cn3nc(C(=O)N4CC[C@H](O)[C@H](C)C4)c4c3C[C@H]3C[C@@H]43)CC2)c1C [Example 280, 1-[4-(2,3-dimethylphenyl)piperazin-1-yl]-2-{(3bR,4aR)-3-[(3R,4S)-4-hydroxy-3-methylpiperidine-1-carbonyl]-3b,4,4a,5-tetrahydro-1H-cyclopropa[3,4]cyclopenta[1,2-c]pyrazol-1-yl}ethan-1-one]
3.29 nM	444 nM	Cc1cccc(N2CCN(C(=O)Cn3nc(C(=O)N4CC[C@@H](O)C[C@@H]4C)c4c3CCC4)CC2)c1C [Example 125, 1-[4-(2,3-dimethylphenyl)piperazin-1-yl]-2-{3-[(2S,4R)-4-hydroxy-2-methylpiperidine-1-carbonyl]-5,6-dihydrocyclopenta[c]pyrazol-1(4H)-yl}ethan-1-one]
3.58 nM	180 nM	Cc1c(Cl)cccc1N1CCN(C(=O)Cn2nc(C(=O)N3CCN(C(=O)CO)CC3)c3c2CCCC3)CC1 [Example 405, 1-(4-(3-chloro-2-methylphenyl)piperazin-1-yl)-2-(3-(4-(2-hydroxyacetyl)piperazine-1-carbonyl)-4,5,6,7-tetrahydro-1H-indazol-1-yl)ethanone]
6.86 nM	4160 nM	Cc1cccc(N2CCN(C(=O)Cn3nc(C(=O)N4CCC(O)C(F)C4)c4c3CCC4)C3(CC3)C2)c1C (single isomer, unassigned) [Example 395, 1-(7-(2,3-dimethylphenyl)-4,7-diazaspiro[2.5]octan-4-yl)-2-(3-(3-fluoro-4-hydroxypiperidine-1-carbonyl)-5,6-dihydrocyclopenta[c]pyrazol-1(4H)-yl)ethanone]

Further lines, the molecule ahead of its results:

Structure (SMILES)	IC50 [1]	IC50 [2]
Cc1cccc(N2CCN(C(=O)Cn3nc(C(=O)N4CCC(O)CC4)c4c3CC(C(F)F)C4)CC2)c1C (racemic) [Example 16, 2-[rac-5-(difluoromethyl)-3-(4-hydroxypiperidine-1-carbonyl)-5,6-dihydro-4H-cyclopenta[c]pyrazol-1-yl]-1-[4-(2,3-dimethylphenyl)piperazin-1-yl]ethanone]	2.21 nM	143 nM
Cc1cccc(N2CCN(C(=O)Cn3nc(C(=O)N4CCO[C@@H](CO)C4)c4c3C[C@H]3C[C@@H]43)C3(CC3)C2)c1C [Example 360, 1-(7-(2,3-dimethylphenyl)-4,7-diazaspiro[2.5]octan-4-yl)-2-((3bR,4aR)-3-((R)-2-(hydroxymethyl)morpholine-4-carbonyl)-3b,4,4a,5-tetrahydro-1H-cyclopropa[3,4]cyclopenta[1,2-c]pyrazol-1-yl)ethanone]	1.17 nM	3870 nM
Cc1cccc(N2CCN(C(=O)Cn3nc(C(=O)N4CCC(NC(=O)CO)CC4)c4c3CCCC4)CC2)c1C [Example 473]	4.16 nM	101 nM
Cc1cccc(N2CCN(C(=O)Cn3nc(C(=O)N4CCN(CC(F)(F)F)CC4)c4c3CCC4)CC2)c1C [Example 158, 1-[4-(2,3-dimethylphenyl)piperazin-1-yl]-2-{3-[4-(2,2,2-trifluoroethyl)piperazine-1-carbonyl]-5,6-dihydrocyclopenta[c]pyrazol-1(4H)-yl}ethan-1-one]	3.06 nM	375 nM
